The values below come from US10588902B2, “Camptothecin derivatives as anti-HIV agents and methods of identifying agents that disrupt Vif self-association” (OyaGen, Inc., priority 2013, dated 2020).

For data set [1] the following is noted: PubChem BioAssays; cited from earlier work.
In the next data set the target is T1, Topo1 (Homo sapiens, UniProt P11387).
T1 construct: purchased Topogen
T1 sequence (P11387 1-765): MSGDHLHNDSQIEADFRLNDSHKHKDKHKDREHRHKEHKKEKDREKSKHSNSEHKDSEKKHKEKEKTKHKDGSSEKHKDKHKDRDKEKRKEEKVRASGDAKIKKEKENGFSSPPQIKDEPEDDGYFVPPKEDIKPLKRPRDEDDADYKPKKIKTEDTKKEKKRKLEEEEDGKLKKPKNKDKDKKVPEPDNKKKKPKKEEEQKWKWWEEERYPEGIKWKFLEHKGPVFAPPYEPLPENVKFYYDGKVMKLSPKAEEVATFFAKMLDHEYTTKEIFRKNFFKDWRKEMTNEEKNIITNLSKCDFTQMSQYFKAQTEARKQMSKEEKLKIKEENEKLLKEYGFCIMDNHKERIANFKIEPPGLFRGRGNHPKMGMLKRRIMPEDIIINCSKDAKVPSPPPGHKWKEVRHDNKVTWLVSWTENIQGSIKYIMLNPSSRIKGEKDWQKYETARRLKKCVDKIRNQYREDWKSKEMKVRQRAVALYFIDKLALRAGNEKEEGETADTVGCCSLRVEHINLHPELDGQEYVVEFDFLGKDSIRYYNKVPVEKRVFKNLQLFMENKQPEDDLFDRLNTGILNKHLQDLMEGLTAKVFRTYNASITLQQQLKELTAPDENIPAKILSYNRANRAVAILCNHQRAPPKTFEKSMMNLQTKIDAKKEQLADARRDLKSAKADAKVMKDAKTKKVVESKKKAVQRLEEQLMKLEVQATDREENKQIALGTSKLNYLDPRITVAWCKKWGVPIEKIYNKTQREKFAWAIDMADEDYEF
Nature of the data set: in vitro Topo1 drug screening assay (Topogen). Format: biochemical. To be noted: increasing amounts, compared to the 0 chem control.

A further data set relates to A3.01 cells. Briefly: cell cycle test (propidium iodide, flow cytometry). It is filed as cell-based. The note with it: for G2 block: CPT 0.2 μM, OYA002-16 0.2 and 0.4 μM. The procedure: FIGS. 9A and 9B illustrate results of an in vitro drug screening assay for toxicity of the OYA002-16 small molecule of the present invention. […] After 24 hours of compound treatment cells were fixed in methanol and treated with propidium iodide (PI) to stain the cellular DNA in A3.01 cells (a CEM derived T-cell line). Flow cytometry of the cells can detect if the cells are in the G1 S or G2 phase of mitosis based on amount of PI staining in each cell.
For orientation: In flow cytometry, cells or beads pass a laser one at a time.

In another data set the target is T2, Vif:Vif complex (Human immunodeficiency virus type 1 group M subtype B, UniProt P12504).
T2 construct: expressed in transfected cells; host or cells: HEK 293T cells, transient co-transfection of two plasmids
It is filed as cell-based, HIV. The note with it: change in RFU over the quenched control.

The subject of a further data set is pseudotyped HIV. Briefly: single round infectivity assay with pseudotyped HIV (TZM-bl luciferase reporter cells). The note with it: up to 33.3 μM, +/−Vif, +/−A3G. It is filed as cell-based. For orientation: A reporter such as luciferase makes a cellular process visible.
The test system of another data set is A3G in viral particles. Nature of the data set: A3G viral particle content (western blot of purified viral particles). To be noted: p24 normalized. Format: cell-based. From the text:
Perform ‘hit’ validation assays to confirm that small molecules selected by the primary and secondary screens have antiviral activity through their antagonism of Vif self-association. Antiviral activity will be validated for each compound with a luciferase viral infectivity reporter assay using infected TZM-bl cells in microtiter plate format. Each compound's ability to inhibit Vif-Vif interaction will be evaluated by co-immunoprecipitation.
Another way to observe target specificity is by looking at the amount of A3G that is encapsulated into the viral particle. Since Vif blocks A3G from getting into the virus, more A3G should be present in viral particles isolated from cells dosed with a small molecule that disables Vif's function.
A general note: Immunoblotting shows a protein as a band on a membrane.

Data set [2] has as its system Vif-dependent A3G degradation. Briefly: in-cell secondary screen for Vif-dependent A3G degradation (A3G-mCherry 293T cells). Format: cell-based. To be noted: compared to +Vif (0%) and −Vif (100%) controls. The method, then: FIG. 10 illustrates in-cell secondary screen fro Vif-dependent A3G degradation. […] 50 ng of Vif was transiently transfected into the cells in 384-well format with Turbofect. 4 hours after transfection the chemistries were added to cells. 24 hours after chemistries were added the mCherry signal was read on a Biotek Synergy 4 plate reader. The signal from plated cells not transfected with Vif was averaged and set at 100% (left image), and cells transfected with Vif and treated with DMSO only were averaged and set at 0% (right image). A chemistry that inhibits Vif's ability to chaperone A3G to the proteasomal degradation pathway would result in an increased mCherry signal compared to the DMSO only control, and any signal that is much higher than the no-Vif positive control is likely to be due to autofluorescence from the chemistry itself.
The primary screen is represented as a change in RFU over the quenched control (ARFU). The secondary screen is compared to the +Vif (0%) and −Vif (100%) controls as described in FIG. 10.

The next data set has as its system 885 bp region of Pol. Briefly: Next Gen Sequencing for A3G signature mutation profiles. Format: cell-based, HIV. From the text:
FIG. 14 is an illustration relating to a Next Gen Sequencing for A3G signature mutation profiles. Next Gen Sequencing with the Ion Torrent platform was used to sequence over 27 million bases for each sample. An 885 bp region of Pol was nested PCR amplified from genomic DNA isolated from TZM-bl cells infected in the previous Figures with −Vif virus+A3G (Positive Control) and +Vif virus+A3G & OYA002-16 (OYA002-16) and −Vif−A3G & OYA002-16 (Negative Control). There were 60 possible A3G “GG” signature mutation sites (A3G mediated single-stranded DNA mutations occur preferentially at the 3′ C of CC dinucleotide pairs) in the region sequenced. 34 sites were mutated at a rate of 15- to 339-fold over the background mutation rate for the Positive Control. 34 sites were mutated at a rate of 48 to 200-fold over background for the OYA002-16 sample. 21 sites overlapped between the two.

The next data set has as its system HepG2 cells. Nature of the data set: high content imaging toxicity study, HepG2. It is filed as cell-based. The procedure:
(§1) All cells are plated on 384-well collagen-coated, tissue culture-treated black walled clear bottomed polystyrene plates. Rat hepatocytes are seeded and dosed on the day they are harvested. Dosing takes place after attachment to the plate. They are treated with test compound at a 10 point dose range of concentrations and incubated for 24 and 48 hrs. HepG2 cells are seeded on the day prior to dosing and are treated with test compound at a 10 point dose range of concentrations and incubated for 24 and 72 hours. At the end of the incubation period, the cells are loaded with the relevant dye/antibody for each cell health marker. The plates are then scanned using an automated High Content Imager, Array Scan® VTI (Thermo Fisher Cellomics). The GSH, ROS, and 5 day toxicity assays were run at 1 time point, 18 hours post-dosing for GSH, 4 hr post-dose for ROS, and 5 days post-drug treatment for the 5 day assay.

The test system of data set [3] is rat hepatocytes and HepG2 cells. Nature of the data set: high content imaging toxicity study, all tested cell types. It is filed as cell-based. The method, then:
as §1

The nature of a further data set: solubility in Lac-Buffer. Format: physicochemical. To be noted: 37 °C, thermodynamic from solid. The procedure: Solubility: 0.7 mg of OYA002-16 was suspended in 100.8 μl Lac-Buffer pH 4.5 or pH 7.4, vortexed for 10 min and warmed-up at 37° C. for 10 min, sonicated for 5 min and vortexed again for 10 min and centrifuged for 10 min. Supernatant was directly injected for concentration measurement. pH 7.4 Solubility: 65-72 μM by UV, 58-63 μM by CLND. pH 4.5 Solubility: 74-92 μM by UV, 74 μM by CLND.
(§2) HPLC conditions used for the experiments were as follows: Column: Luna C-18, 150×4.6 from Phenomenex. Eluent: 42% aqueous CAN with 0.75 mM NH4OAc, pH=6.8. Detection: UV at 254 nm. Temperature: 35° C. Flow: 1.5 mL/min. Injection: 20 uL (solubility, freeze/thaw) or 200 uL (stability).

Data set [4] can be described thus: stability test in PBS buffer. It is filed as physicochemical. The note with it: after 48 h in PBS. The procedure: For each compound, a 0.250 uM stock solution in DMSO was prepared and sonicated until clear. Then, for each stability test, the cpd was formulated by adding 10 uL of the stock solution to 990 uL of PBS buffer, pH 7.0 and then a 200 uL aliquot was incubated 37° C. for 24 or 48 hrs.
as §2

The nature of data set [5]: stability test after 3 freeze/thaw cycles. It is filed as physicochemical. The procedure:
For each compound, an aliquot of the stock solution (250 uM in DMSO) was frozen for 24 hrs at −80° C. and thawed for 1 hr, 3 times, then diluted 10 times in 40% CAN and analyzed by HPLC.
as §2

SMILES strings stand for the structures. In brackets after ≈: the same amount, converted by molar mass.

T2 sequence (P12504 whole entry, one chain of several): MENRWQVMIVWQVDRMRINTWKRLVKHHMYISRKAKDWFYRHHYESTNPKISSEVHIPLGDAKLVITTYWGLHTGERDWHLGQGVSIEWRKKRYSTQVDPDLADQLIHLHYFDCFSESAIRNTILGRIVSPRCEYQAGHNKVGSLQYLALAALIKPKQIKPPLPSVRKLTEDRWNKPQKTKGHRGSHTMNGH
Source text for Vif:Vif complex: EGFP-V5-Vif (the fluorescence donor) and Vif-HA-REACh2 (the acceptor and non-fluorescent YFP variant that quenches EGFP fluorescence) will be co-expressed in HEK 293T cells. Compounds that dissociate Vif multimers will induce EGFP fluorescence making this a positive screen for small molecules that disrupt Vif self-association.
EGFP is a FRET donor and REACh2 (Resonance Energy Accepting Chromoprotein 2) is a non-fluorescent FRET acceptor (54). The non-fluorescent REACh2 is able to quench EGFP signal in a distance-dependent manner when they are linked to interacting domains. However, if there is no interaction, EGFP and REACh2 are not proximal and quenching will not occur. […]
EGFP-V5-Vif alone has a strong baseline fluorescence. […]
Experimentals relating to adapting the quenched FRET assay to 96-well and 384-well format are set forth below: • Description of reagents and readouts: We are currently capable of screening small libraries in 96-well format, and have optimized transfections for 384-well format. […] REACh2 is a non-fluorescent YFP variant that quenches EGFP through FRET, so in the default state Vif dimerizes and the EGFP signal is quenched, a compound that affects the interaction will cause an increase in fluorescence due to lack of FRET from interacting proteins (aka “releasing of the quench”). Our read out is fluorescence at GFP's excitation and emission in a PE Victor 3 plate reader. […]
Procedure for pseudotyped HIV: The antiviral activity of the hits in a single round infection with psuedotyped HIV was assessed. […] The wildtype HIV proviral vector codes for all HIV genes except nef (replaced with EGFP) and env. The delta Vif proviral vector is identical to wildtype except that it contains a stop codon early within the vif gene. […] Alternatively, in the absence of A3G, both wild type and Delta Vif viruses should have good infectivity.
Transfecting the coat protein on a separate vector, allows for only a single round of infection. […] Viral load was normalized with a p24 ELISA Kit (Zeptometrix, Buffalo, N.Y.). Equal viral loads were then added in triplicate to TZM-bl reporter cells that express luciferase from the HIV-LTR promoter. 48 hours after infection luciferase levels were assessed with Steady-Glo reagent (Promega).
The antiviral activity of the hits in a single-round infection with pseudotyped HIV were conducted using HEK293T producer cells +/−A3G and viruses that are +/−Vif. […]
The infections utilized TZM-bl reporter cells that contain stably integrated luciferase that is driven by the HIV-LTR promoter, therefore luciferase is expressed upon successful HIV infection. […] Luminescence was measured as a quantitative metric for changes in infectivity with each compound as compared to controls, in which relative luminescence units (RLU) with no compounds are set to 100%.

`CC[C@@]1(O)C(=O)OCc2c1cc1n(c2=O)Cc2cc3c(NC(=O)CN)cccc3nc2-1` [9-glycineamido-20(S)-CPT]: in data set [1], the “active in Anti-Cancer Screens at NCI” value is listed as 37 of 76.
For `CC[C@@]1(O)C(=O)OCc2c1cc1n(c2=O)Cc2cc3ccccc3nc2-1` [CPT, Camptothecin], at Topo1, the “open nicked circles of plasmid DNA (Topo1 poisoning)” value is “trap plasmid DNA into open nicked circles”. In addition, the G2 block entry in the data set with A3.01 cells (24 hours) is recorded as “strong G2 block”.
As for `CC[C@@]1(O)C(=O)NCc2c1cc1n(c2=O)Cc2cc3ccccc3nc2-1` [OYA002-16, Lactam-CPT], the “dose dependence in primary screen” value on Vif:Vif complex is listed as “dose dependence”. Further, in the data set with pseudotyped HIV, the “antiviral effect in single cycle HIV infectivity” value is “dose dependent antiviral effect only when Vif and A3G were expressed”. Moreover, the “A3G in viral particles” value in the data set with A3G in viral particles is “increases A3G in viral particles”. Also, on Topo1, the “open nicked circles of plasmid DNA (Topo1 poisoning)” value is on record as “no increase in open nicked circles”. Moreover, the cell cycle effects result in the data set on A3.01 cells is “minimal cell cycle effects”. In addition, the “cells in G2” value with A3.01 cells (0.2 and 0.4 μM, 24 hours, DMSO control 17%) is 22%. Also, the G2 block entry in the data set on A3.01 cells (24 hours) is “minimal amount of G2 block”. For the same compound, the “dose dependence in secondary screen (mCherry signal)” value in data set [2] is recorded as “dose dependence”. In the data set on 885 bp region of Pol, the “mutated sites overlapping with Positive Control” value is given as 21 sites. The “A3G signature mutation sites mutated” value in the data set with 885 bp region of Pol (+Vif virus +A3G, 60 possible sites) came to 34 sites. Further, in the data set on HepG2 cells, the Cytostasis result is listed as “largest effect”. Moreover, in data set [3], the “Stress and Apoptosis assays” value is recorded as “minimal effect”. Besides, the Viability tests result in data set [3] is on record as “minimal effect”. Also, the solubility (commonly how much of the substance goes into solution per volume) at 35 min in “solubility in Lac-Buffer” (pH 4.5, aqueous buffer, pH 4.5, by CLND) is 74 µM (≈ 25.7 µg/mL); in the data set “solubility in Lac-Buffer” (pH 4.5, aqueous buffer, pH 4.5, by UV) it was 74 to 92 µM (≈ 25.7 to 32 µg/mL); in the data set “solubility in Lac-Buffer” (pH 7.4, aqueous buffer, pH 7.4, by CLND) it was 58 to 63 µM (≈ 20.1 to 21.9 µg/mL); in the data set “solubility in Lac-Buffer” (pH 7.4, aqueous buffer, pH 7.4, by UV) it was 65 to 72 µM (≈ 22.6 to 25 µg/mL). Further, the stable in data set [4] and in data set [5] was 100% throughout.
Take `CC[C@@]1(O)C(=O)OCc2c1cc1n(c2=O)Cc2cc3c(CN(C)C)c(O)ccc3nc2-1` [Topotecan]: the “active in Anti-Cancer Screens at NCI” value in data set [1] is given as “active in most”.
Regarding `CC[C@H]1C(=O)OCc2c1cc1n(c2=O)Cc2cc3ccccc3nc2-1` [deoxy-CPT], the “active in Anti-Cancer Screens at NCI” value in [1] is given as 4 of 68.
